This is an account of results in PubChem BioAssay (NCI).

Assay in all cases: inhibition of tumour cell growth, NCI panel, 48 h
Test [1] has as its system MDA-N.
For test [2], the system named is MALME-3M melanoma.
Test [3] has as its system M14 melanoma.
Test [4] concerns IGROV1 ovarian.
The subject of test [5] is SNB-75 CNS.
In test [6] the test system is SK-MEL-28 melanoma.
For test [7], the system named is EKVX NSCLC.
Test [8] has as its system HOP-92 NSCLC.
The subject of test [9] is SF-539 CNS.
Test [10] relates to UACC-62 melanoma.

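Dose response: 5 concentrations. Exposure: 48 h. Format: 96-well plates. Endpoint: linear interpolation; highest concentration if not reached. The concentration for full growth arrest is given as TGI.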 Where a SMILES comes first, the peptide text is derived from it. The star is where a group is joined. Cbz = O=C(OCc1ccccc1)*; OBn = c1ccc(CO*)cc1

Regarding `[N-]=[N+]=NCc1cccc(Nc2cc(=O)[nH]c(=O)[nH]2)c1`, the TGI in test [1], in test [2], in test [3], in test [4], in test [5] and in test [6] was > 100 µM in each case. Besides, the TGI in test [7], in [8], in [9] and in test [10] was > 100 µM in each case.
Take `O=[N+]([O-])c1ccc(N=Nc2c(O)c(S(=O)(=O)O)cc3cc(S(=O)(=O)O)ccc23)cc1`: the TGI in [1], in test [2], in [3], in test [4], in test [5] and in test [6] was > 100 µM each time. Further, the TGI in [7], in test [8], in [9] and in test [10] was > 100 µM throughout.
Regarding `Cc1[nH]c2ccccc2c1C=Nc1ccc(N=Cc2c(C)[nH]c3ccccc23)cc1`, the TGI in test [1], in [2], in test [3], in test [4], in [5] and in test [6] was > 100 µM each time. Besides, the TGI in test [7], in [8], in test [9] and in [10] was > 100 µM throughout.
As to `NC(=O)c1ccc2c(c1)S(=O)(=O)c1ccccc1C2=O`, the TGI in test [1], in test [2], in [3], in test [4], in [5] and in test [6] was > 100 µM each time. Also, the TGI in [7], in test [8], in test [9] and in test [10] was > 100 µM each time.
Take `COC(=O)C(Cc1ccc(O)cc1)NC(=O)C(CC(=O)OCc1ccccc1)NC(=O)OCc1ccccc1` (stereo not given) (Cbz-Asp(OBn)-Tyr-OMe; configuration not given here): the TGI was 35.7 µM in [1]; > 100 µM in test [2]; 44.4 µM in [3]; 31.1 µM in test [4]; 32.6 µM in test [5]; 31.3 µM in test [6]. The TGI is 46.7 µM in [7] and > 100 µM in test [8].
Consider `CCCCCCCCCCCCCCCCCCNc1ccn(C2OC(COP(=O)(O)OCC3OC(n4cc(C)c(=O)[nH]c4=O)CC3N=[N+]=[N-])C(O)C2O)c(=O)n1` (stereo not given), for which the TGI in test [1] was > 100 µM; in test [2], 32.1 µM; in [3], 36.1 µM; in [4], 42.5 µM; in test [5] it was 58.5 µM; in test [6], 36.8 µM. For the same compound, the TGI in test [7] is 48.5 µM; in test [8], > 100 µM; in test [9] it was 33.8 µM; in [10], 36.4 µM.
Take `COc1ccc2c(c1)N=C1CSC(c3ccccc3Cl)N1C2` (stereo not given): the TGI was found to be 26.8 µM in test [1]; 73.9 µM in test [2]; 28.3 µM in test [3]; 40.6 µM in test [5]; 40.8 µM in test [6]; 22 µM in [7]. Further, the values for the TGI in [8], in [9] and in [10] were 82.5 µM, 22.6 µM and 20.3 µM, respectively.
For the compound `COC(=O)n1c(=O)n(-c2ccccc2)c(=O)n1C(=O)OC`, the TGI in [1], in test [2], in [3], in test [4], in test [5] and in test [6] was > 100 µM throughout. Further, the TGI in test [7], in [9] and in [10] was > 100 µM throughout.
With `CCCCc1ccc(Nc2ncc3[nH]cnc3n2)cc1`, the TGI in [1] was > 100 µM; in test [2] it was 40.6 µM; in test [3], 38.9 µM; in [4] it was 39.6 µM; in [5], 35.5 µM; in test [7] it was 98.1 µM. The figures for the TGI in [8], in test [9] and in test [10] were 49.7 µM, 56.5 µM and 49.6 µM, respectively.
Consider `COC(=O)/C=C(/C(=O)OC)c1c(C)c(C)c2c(C)cc(C)cc(C)c1-2`, for which the TGI in [1] is 4.83 µM; in [2], > 100 µM; in test [3], 37.3 µM; in test [4], > 100 µM; in test [6], > 100 µM; in test [7], > 100 µM. The TGI in [8], in [9] and in test [10] was > 100 µM each time.
In the case of `COC(=O)/C=C1\CCC(C)(C(=O)NS(=O)(=O)c2ccc(C)cc2)C1(C)C` (stereo not given), the TGI in [1], in test [2], in test [3], in test [4], in test [7] and in test [8] was > 100 µM in each case. Further, the TGI in test [9] and in test [10] was > 100 µM throughout.
Regarding `CCOc1nc(-c2ccccc2)cc(-c2ccc(N3CCOCC3)cc2)c1C#N`, the TGI in test [1], in test [2], in test [3], in [4], in test [5] and in test [6] was > 100 µM throughout. In addition, the TGI in [7], in test [8] and in test [9] was > 100 µM throughout.
Consider `Cc1cn(CC2=NCC(C)(C)N2)c(=O)[nH]c1=O`, for which the TGI in [1], in test [2], in test [3], in [4], in [5] and in [6] was > 100 µM each time. For the same compound, the TGI in [7], in [8] and in [10] was > 100 µM throughout.
